Source: ChEMBL document CHEMBL1201862, “PubChem BioAssay data set” (2004)
Values belong to the compound of their own block, whether it stands above or below them. Active and inactive are the calls of the source.

How the values were obtained:
[1] = target: T1, Calpain-2 catalytic subunit (Sus scrofa, UniProt P43367); assay: m-calpain protease blockers, concentration series – biochemical, fluorogenic peptide substrate, dose response (AID 1420); format: functional
T1 sequence (P43367 whole entry): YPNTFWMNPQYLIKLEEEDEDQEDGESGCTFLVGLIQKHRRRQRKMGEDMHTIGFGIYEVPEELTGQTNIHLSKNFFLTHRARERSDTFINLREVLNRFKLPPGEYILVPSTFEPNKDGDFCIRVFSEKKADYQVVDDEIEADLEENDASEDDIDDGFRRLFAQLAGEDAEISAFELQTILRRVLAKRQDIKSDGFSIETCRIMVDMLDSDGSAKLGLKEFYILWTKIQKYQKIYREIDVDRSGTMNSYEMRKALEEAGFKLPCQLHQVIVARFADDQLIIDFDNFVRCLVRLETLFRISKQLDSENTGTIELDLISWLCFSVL

[2] = target: T2, Polyadenylate-binding protein 1 (Homo sapiens, UniProt P11940); assay: MLLE binding blockers, Cy5 peptide tracer – biochemical, fluorescence polarization, Cy5-PAM2 peptide, secondary, miRNA deadenylation inhibitor project, dose response (AID 602260); format: functional; details: read-out: IC50_Mean
[3] = target: T2, Polyadenylate-binding protein 1; assay: MLLE domain peptide-binding blockers, IC50 – biochemical, fluorescence polarization, FITC-PAM2 peptide, dose response (AID 602259); format: functional; details: read-out: IC50_Mean
[4] = target: Genome polyprotein (dengue virus type 2, UniProt P29990); assay: flavivirus cap methylation enzyme inhibition – biochemical, confirmation dose response, primary screen (AID 588689); format: functional
[5] = target: T3, Carboxy-terminal domain RNA polymerase II polypeptide A small phosphatase 1 (Homo sapiens, UniProt Q9GZU7); assay: CTDSP1 inhibitors, concentration-response, biochemical, absorbance readout, ultra-high-throughput screen actives (AID 540297); format: functional
T3 sequence (Q9GZU7 whole entry): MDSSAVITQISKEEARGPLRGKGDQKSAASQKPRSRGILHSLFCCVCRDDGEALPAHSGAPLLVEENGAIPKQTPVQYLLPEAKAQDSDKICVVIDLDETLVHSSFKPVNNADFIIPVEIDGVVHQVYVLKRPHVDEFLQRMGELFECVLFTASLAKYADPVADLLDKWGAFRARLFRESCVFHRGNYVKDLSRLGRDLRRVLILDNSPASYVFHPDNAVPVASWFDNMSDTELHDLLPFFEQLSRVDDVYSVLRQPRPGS

[6] = target: T4, Corticotropin-releasing factor receptor 2/Corticotropin-releasing factor-binding protein (Homo sapiens, UniProt P24387+Q13324); assay: Dose Response confirmation of uHTS hits for small molecule antagonists of the CRF-binding protein and CRF-R2 receptor complex.; format: functional; details: read-out: IC50_Mean
T4 sequence (Q13324 whole entry): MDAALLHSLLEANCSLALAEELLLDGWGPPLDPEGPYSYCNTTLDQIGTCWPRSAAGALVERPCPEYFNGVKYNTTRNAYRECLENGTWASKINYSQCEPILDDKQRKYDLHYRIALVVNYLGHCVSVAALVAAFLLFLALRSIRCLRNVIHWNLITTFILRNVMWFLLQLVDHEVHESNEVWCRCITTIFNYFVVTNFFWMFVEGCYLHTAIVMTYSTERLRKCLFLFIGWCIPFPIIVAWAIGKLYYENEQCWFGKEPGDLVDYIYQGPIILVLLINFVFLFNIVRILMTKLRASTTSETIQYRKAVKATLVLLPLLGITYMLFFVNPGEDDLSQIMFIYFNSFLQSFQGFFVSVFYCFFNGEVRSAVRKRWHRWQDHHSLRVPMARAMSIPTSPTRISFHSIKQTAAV
T4 sequence (P24387 whole entry): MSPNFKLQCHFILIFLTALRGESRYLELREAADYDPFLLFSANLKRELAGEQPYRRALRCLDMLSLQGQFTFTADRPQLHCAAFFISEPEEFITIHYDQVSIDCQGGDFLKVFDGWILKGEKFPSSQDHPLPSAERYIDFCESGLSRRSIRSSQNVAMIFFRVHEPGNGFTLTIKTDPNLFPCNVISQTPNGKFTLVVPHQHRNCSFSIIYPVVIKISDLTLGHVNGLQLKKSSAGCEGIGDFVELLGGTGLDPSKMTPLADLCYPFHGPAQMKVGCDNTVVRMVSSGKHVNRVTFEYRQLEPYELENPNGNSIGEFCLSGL

[7] = target: T4, Corticotropin-releasing factor receptor 2/Corticotropin-releasing factor-binding protein; assay: activators of CRF receptor 2 with binding protein – uHTS hits, confirmation (AID 602473); format: functional; details: read-out: EC50_Mean
[8] = intracellular Trypanosoma cruzi inhibitors in host cells – cell-based, plate reader, cherry-pick samples, set 3, dose response (AID 651818); format: functional;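 further: compounds incubated with infected cells for about four days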
[9] = system: BJ; assay: BJ-TERT-LT-ST fibroblast viability loss – cell-based, RAS-independent, luminescence, dose response (AID 1935); format: functional; details: Homo sapiens;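 further: BJ fibroblasts immortalized with TERT plus LT and ST oncogenes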
[10] = system: BJ; assay: BJ-TERT fibroblast viability loss – cell-based, RAS-independent, luminescence, dose response (AID 1933); format: functional; details: Homo sapiens
[11] = system: BJ; assay: cells; format: functional, cell-based; details: Homo sapiens
[12] = DRD fibroblast viability loss – cell-based, non-viral oncogenic, luminescence, dose response (AID 1934); format: functional; details: Homo sapiens

T2 sequence (P11940 whole entry, the tested form may be a part): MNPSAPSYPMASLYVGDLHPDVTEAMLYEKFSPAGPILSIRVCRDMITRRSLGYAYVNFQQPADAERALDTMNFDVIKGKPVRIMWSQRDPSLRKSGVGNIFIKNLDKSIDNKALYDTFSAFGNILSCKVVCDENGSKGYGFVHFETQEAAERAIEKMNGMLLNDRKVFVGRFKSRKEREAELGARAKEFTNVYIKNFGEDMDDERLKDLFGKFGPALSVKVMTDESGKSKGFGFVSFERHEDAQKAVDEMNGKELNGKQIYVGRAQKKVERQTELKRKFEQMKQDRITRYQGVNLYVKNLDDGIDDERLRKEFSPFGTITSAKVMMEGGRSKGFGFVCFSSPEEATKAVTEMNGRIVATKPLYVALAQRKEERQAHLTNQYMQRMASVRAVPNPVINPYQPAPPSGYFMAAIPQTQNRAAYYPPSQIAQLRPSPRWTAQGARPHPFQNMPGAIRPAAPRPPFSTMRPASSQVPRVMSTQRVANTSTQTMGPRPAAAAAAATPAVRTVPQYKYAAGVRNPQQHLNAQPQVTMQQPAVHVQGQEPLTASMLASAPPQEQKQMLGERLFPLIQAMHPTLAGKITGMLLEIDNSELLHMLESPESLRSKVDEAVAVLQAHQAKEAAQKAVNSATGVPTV
Sequence of Genome polyprotein (P29990 2492-3391 limits assumed): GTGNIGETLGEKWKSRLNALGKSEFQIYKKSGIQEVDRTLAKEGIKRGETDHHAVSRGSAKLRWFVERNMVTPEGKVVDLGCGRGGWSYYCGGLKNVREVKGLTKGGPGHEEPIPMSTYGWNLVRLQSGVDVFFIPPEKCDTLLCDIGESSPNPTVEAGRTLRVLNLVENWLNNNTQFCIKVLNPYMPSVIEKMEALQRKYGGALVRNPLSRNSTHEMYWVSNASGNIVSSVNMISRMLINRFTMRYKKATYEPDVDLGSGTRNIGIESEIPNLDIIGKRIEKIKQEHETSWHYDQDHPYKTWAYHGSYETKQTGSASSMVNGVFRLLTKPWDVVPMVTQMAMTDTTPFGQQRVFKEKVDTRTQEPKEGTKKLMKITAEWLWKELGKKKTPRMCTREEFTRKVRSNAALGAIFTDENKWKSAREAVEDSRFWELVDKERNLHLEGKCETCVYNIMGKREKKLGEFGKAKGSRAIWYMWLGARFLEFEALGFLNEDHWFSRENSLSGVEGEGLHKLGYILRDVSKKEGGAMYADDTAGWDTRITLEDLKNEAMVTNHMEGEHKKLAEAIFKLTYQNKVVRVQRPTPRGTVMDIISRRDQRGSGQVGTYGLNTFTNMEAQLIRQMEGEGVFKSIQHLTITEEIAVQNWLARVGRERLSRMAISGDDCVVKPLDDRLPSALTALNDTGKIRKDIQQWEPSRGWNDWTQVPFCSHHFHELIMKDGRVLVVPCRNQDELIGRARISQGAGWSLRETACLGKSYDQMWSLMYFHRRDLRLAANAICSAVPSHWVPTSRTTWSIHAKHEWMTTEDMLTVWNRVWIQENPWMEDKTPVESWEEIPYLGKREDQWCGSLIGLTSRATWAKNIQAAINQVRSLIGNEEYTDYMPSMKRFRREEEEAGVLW

SMILES: O=C1CC(SC(=S)C2CCCC2=O)C(=O)N1 (stereo not drawn)
IC50 [4]: 45.4 µM (active) | IC50 [2]: > 66 µM (inactive) | IC50 [3]: > 66 µM (inactive)

SMILES: CC1(C)OC(=O)C(=Cc2ccc(-c3ccc(Cl)c(C(=O)O)c3)o2)C(=O)O1
IC50 [5]: 4.62 µM (active)

SMILES: C/C(=N\Nc1cc(C)nc(-c2ccccc2)n1)c1cccc([N+](=O)[O-])c1
IC50 [6]: > 47.1 µM (inactive) | EC50 [7]: > 53 µM (inactive)

SMILES: Cc1ccc(-n2nc(-c3ccco3)cc2C(=O)O)cc1
IC50 [5]: 3.82 µM (active)

SMILES: C[C@H]1CN([C@@H](C)CO)C(=O)Cc2cc(NC(=O)CCCCCC(=O)Nc3ccccc3N)ccc2O[C@@H]1CN(C)Cc1ccc(C(F)(F)F)cc1
AC50 [8]: 5.01 µM (active)

SMILES: COc1cc(/C=C2/SC(=S)N(CCC(=O)Nc3ccc(C(=O)O)cc3)C2=O)cc(OC)c1OC
IC50 [5]: 6.91 µM (active)

SMILES: CN(C)c1ccc(C(=O)c2ccccc2C(=O)O)cc1[N+](=O)[O-]
EC50 [9]: > 150 µM (not active) | EC50 [10]: > 150 µM (not active) | EC50 [11]: > 150 µM (not active) | EC50 [12]: 102 µM (active)

SMILES: Cc1ccsc1C(=O)N/N=C/c1ccc2c(c1)OCO2
EC50 [9]: > 150 µM (inconclusive) | EC50 [10]: 15.4 µM (active) | EC50 [11]: 11.6 µM (inconclusive) | EC50 [12]: 9.95 µM (inconclusive)

SMILES: C[C@H](CO)N1C[C@H](C)[C@H](CN(C)Cc2ccc(C(F)(F)F)cc2)Oc2ccc(NC(=O)Nc3cccc4ccccc34)cc2C1=O
AC50 [8]: 2.81 µM (active)

SMILES: CN(C(=O)COC(=O)c1cnc(Cl)c(Cl)c1)C1CCS(=O)(=O)C1 (stereo not drawn)
IC50 [1]: 3.14 µM (not active)

SMILES: C[C@H](CO)N1C[C@H](C)[C@H](CN(C)Cc2ccc(Oc3ccccc3)cc2)Oc2c(NC(=O)c3cnccn3)cccc2C1=O
AC50 [8]: 5.22 µM (active)

SMILES: COC(CNc1ncnc2c1cnn2C)OC
IC50 [6]: > 47.1 µM (inactive) | EC50 [7]: > 53 µM (inactive)

SMILES: C[C@@H]1CN([C@H](C)CO)C(=O)c2cccc(NC(=O)Nc3ccc(C(F)(F)F)cc3)c2O[C@H]1CN(C)C(=O)Nc1ccc2c(c1)OCO2
AC50 [8]: 6.12 µM (active)

The remaining lines, values ahead:

IC50 [1]: 2.79 µM (active)
SMILES: COc1cc(Br)cc(CNc2ccc(F)c([N+](=O)[O-])c2)c1O

IC50 [2]: > 66 µM (inactive) | IC50 [3]: > 66 µM (inactive)
SMILES: Cc1n[nH]c2c(=S)[nH]c(=O)[nH]c12

IC50 [1]: > 50 µM (not active)
SMILES: CCOC(=O)NC(C(F)(F)F)(C(F)(F)F)P(=O)(c1ccccc1)c1ccccc1

IC50 [5]: 8.03 µM (active)
SMILES: O=C(Oc1ccc(/C=N/NC(=O)c2ccccc2O)cc1)c1ccccc1

IC50 [6]: > 47.1 µM (inactive) | EC50 [7]: > 53 µM (inactive)
SMILES: COc1ccc(NC(=O)CCCC2CCCCC2)cc1S(=O)(=O)N1CCCCC1

IC50 [1]: > 50 µM (not active)
SMILES: COc1cccc(NC(=O)CC2SC(Nc3ccccc3)=NC2=O)c1 (stereo not drawn)

IC50 [2]: > 66 µM (inactive) | IC50 [3]: > 66 µM (inactive)
SMILES: COc1ccc(C(=O)NC(=S)Nc2cccc(NC(=O)c3ccco3)c2)cc1[N+](=O)[O-]
